Entries after “also recorded” stand apart in the source; their conditions may differ.
Each compound was assayed against T1, recombinant PfGSK-3 (Plasmodium falciparum, UniProt O77344) (assay: PfGSK-3 inhibition assay (KinaseGlo Plus)). Settings: tested up to a concentration of 10 µM, kinase Glo assay.
T1 construct: 6xHis (N, cleaved yes); GST (N, cleaved yes); made in house; host or cells: E. coli BL21 (DE3)-RIL
T1 sequence (O77344 entry or part of it): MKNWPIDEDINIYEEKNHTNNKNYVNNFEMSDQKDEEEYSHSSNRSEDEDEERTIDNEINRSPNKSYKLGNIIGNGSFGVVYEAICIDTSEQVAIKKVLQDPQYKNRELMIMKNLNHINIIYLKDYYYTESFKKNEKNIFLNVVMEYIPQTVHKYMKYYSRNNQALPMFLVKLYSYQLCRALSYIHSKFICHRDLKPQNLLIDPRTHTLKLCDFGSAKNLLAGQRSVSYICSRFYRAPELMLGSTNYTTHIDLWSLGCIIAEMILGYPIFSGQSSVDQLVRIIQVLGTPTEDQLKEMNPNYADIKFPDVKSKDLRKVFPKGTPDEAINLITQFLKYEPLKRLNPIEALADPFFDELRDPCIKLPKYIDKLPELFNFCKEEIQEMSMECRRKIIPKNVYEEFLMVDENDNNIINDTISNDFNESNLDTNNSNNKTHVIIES
Format: biochemical
Method: PfGSK-3 was produced as published before. In brief, PfGSK-3 was cloned into pOPIN J expression vector [57] which was transformed into E. coli BL21 (DE3)-RIL. Expression of recombinant 6xHis-GST-PfGSK-3 was induced by incubation with isopropyl β-D-1-thiogalactopyranoside (IPTG). The recombinant protein was purified by affinity chromatography using glutathione resin and elution by digestion with human rhinovirus 3C protease.
The PfGSK-3 inhibition assay was carried out using the commercial KinaseGlo Plus assay (KinaseGlo Plus, Promega) as described before. In brief, the kinase and a corresponding substrate (GS-1 substrate, Promega) in the presence of ATP were used to perform substrate phosphorylation. Subsequently, luminescence is generated utilizing luciferase which is a component of the KinaseGlo Reagent. The intensity of the luminescence signal corresponds to the amount of remaining ATP in the reaction mixture. For the investigation, potential kinase inhibitors were dissolved in DMSO and were added directly to the kinase reaction. The final DMSO concentration in the kinase reaction was at most 1%. As the negative control, 1% DMSO without test compound was measured. A control reaction without kinase was measured simultaneously. The difference between kinase reaction and control reaction corresponds to the kinase activity.
For `COc1ccc2[nH]cc(-c3c(-c4c[nH]c5ccc(Br)cc45)c(=O)c3=O)c2c1` [2ad, 3-(5-Bromo-1H-indol-3-yl)-4-(5-methoxy-1H-indol-3-yl)cyclobut-3-ene-1,2-dione], the “Inhibition of recombinant PfGSK-3” value was “failed to show kinase inhibitory activity; also recorded: inactive; also recorded: did not inhibit PfGSK-3”. With `COc1ccc2[nH]cc(-c3c(-c4c[nH]c5ccc(I)cc45)c(=O)c3=O)c2c1` [2ae, 3-(5-Iodo-1H-indol-3-yl)-4-(5-methoxy-1H-indol-3-yl)cyclobut-3-en-1,2-dione] the “Inhibition of recombinant PfGSK-3” value was “failed to show kinase inhibitory activity; also recorded: inactive; also recorded: did not inhibit PfGSK-3”. For `CN(C)CCCn1cc(-c2c(-c3c[nH]c4ccccc34)c(=O)c2=O)c2ccccc21` [2k, 3-{1-[3-(Dimethylamino)propyl]-1H-indol-3-yl}-4-(1H-indol-3-yl)cyclobut-3-ene-1,2-dione], the “Inhibition of recombinant PfGSK-3” value was “failed to show kinase inhibitory activity; also recorded: inactive; also recorded: did not inhibit PfGSK-3”.

These compounds were tested on human THP-1 cell line (assay: Cytotoxicity assay on human THP-1 cell line (Alamar Blue)). Settings: THP-1 versus P. falciparum NF54-luc.
Format: cell-based
Method: The cytotoxicity of selected antiplasmodial bisindolylcyclobutenediones was determined against THP-1 cells following a protocol described previously. In brief, THP-1 cells were incubated with test compounds in serial compound dilutions in the presence of 0.01% DMSO at 37 °C. After 48 h, Alamar Blue was added, and after 4 h the fluorescence was read (λex = 544 nm, λem = 590 nm) using a microplate reader. THP-1 cells in wells containing medium plus 0.01% DMSO served as negative controls. Experiments were performed in triplicate and were repeated as a whole at least twice.
In the case of `COc1ccc2[nH]cc(-c3c(-c4c[nH]c5ccc(Br)cc45)c(=O)c3=O)c2c1` [2ad, 3-(5-Bromo-1H-indol-3-yl)-4-(5-methoxy-1H-indol-3-yl)cyclobut-3-ene-1,2-dione], the “Selectivity Index (SI) = IC50, THP-1/IC50, Pf” value (from here on “Selectivity Index (SI) = IC50”) is reported as 30. With `COc1ccc2[nH]cc(-c3c(-c4c[nH]c5ccc(I)cc45)c(=O)c3=O)c2c1` [2ae, 3-(5-Iodo-1H-indol-3-yl)-4-(5-methoxy-1H-indol-3-yl)cyclobut-3-en-1,2-dione] the “Selectivity Index (SI) = IC50” value was 23. For `O=c1c(-c2c[nH]c3ccccc23)c(-c2c(-c3ccccc3)[nH]c3ccccc23)c1=O` [2h, 3-(1H-Indol-3-yl)-4-(2-phenyl-1H-indol-3-yl)cyclobut-3-ene-1,2-dione], the “Selectivity Index (SI) = IC50” value was 1.0. `CN(C)CCCn1cc(-c2c(-c3c[nH]c4ccccc34)c(=O)c2=O)c2ccccc21` [2k, 3-{1-[3-(Dimethylamino)propyl]-1H-indol-3-yl}-4-(1H-indol-3-yl)cyclobut-3-ene-1,2-dione] was tested, and the “Selectivity Index (SI) = IC50” value was 34. For `Cn1cc(-c2c(-c3c[nH]c4ccccc34)c(=O)c2=O)c2ccccc21` [2q, 3-(1H-Indol-3-yl)-4-(1-methyl-1H-indol-3-yl)cyclobut-3-ene-1,2-dione], the “Selectivity Index (SI) = IC50” value was 4.7. In the case of `O=c1c(-c2c[nH]c3ccccc23)c(-c2c[nH]c3ccc(I)cc23)c1=O` [2r, 3-(1H-Indol-3-yl)-4-(5-iodo-1H-indol-3-yl)cyclobut-3-ene-1,2-dione], the “Selectivity Index (SI) = IC50” value is reported as 7.9. With `Cn1cc(-c2c(-c3c(-c4ccccc4)[nH]c4ccccc34)c(=O)c2=O)c2ccccc21` [2u, 3-(1-Methyl-1H-indol-3-yl)-4-(2-phenyl-1H-indol-3-yl)cyclobut-3-ene-1,2-dione] the “Selectivity Index (SI) = IC50” value was 1.2. `Cc1[nH]c2ccccc2c1-c1c(-c2cn(C)c3ccccc23)c(=O)c1=O` [2y, 3-(1-Methyl-1H-indol-3-yl)-4-(2-methyl-1H-indol-3-yl)cyclobut-3-ene-1,2-dione] was tested, and the “Selectivity Index (SI) = IC50” value was 3.1.

Same assay, conditions: human THP-1 cell line, 48 h, Alamar Blue
`COc1ccc2[nH]cc(-c3c(-c4c[nH]c5ccc(Br)cc45)c(=O)c3=O)c2c1` [2ad, 3-(5-Bromo-1H-indol-3-yl)-4-(5-methoxy-1H-indol-3-yl)cyclobut-3-ene-1,2-dione] was tested, and the IC50 was 14100 nM. `COc1ccc2[nH]cc(-c3c(-c4c[nH]c5ccc(I)cc45)c(=O)c3=O)c2c1` [2ae, 3-(5-Iodo-1H-indol-3-yl)-4-(5-methoxy-1H-indol-3-yl)cyclobut-3-en-1,2-dione] gave an IC50 of 14500 nM. In the case of `O=c1c(-c2c[nH]c3ccccc23)c(-c2c(-c3ccccc3)[nH]c3ccccc23)c1=O` [2h, 3-(1H-Indol-3-yl)-4-(2-phenyl-1H-indol-3-yl)cyclobut-3-ene-1,2-dione], the IC50 is reported as 6370 nM. `CN(C)CCCn1cc(-c2c(-c3c[nH]c4ccccc34)c(=O)c2=O)c2ccccc21` [2k, 3-{1-[3-(Dimethylamino)propyl]-1H-indol-3-yl}-4-(1H-indol-3-yl)cyclobut-3-ene-1,2-dione] gave an IC50 of 12800 nM. With `Cn1cc(-c2c(-c3c[nH]c4ccccc34)c(=O)c2=O)c2ccccc21` [2q, 3-(1H-Indol-3-yl)-4-(1-methyl-1H-indol-3-yl)cyclobut-3-ene-1,2-dione] the IC50 was 14000 nM. With `O=c1c(-c2c[nH]c3ccccc23)c(-c2c[nH]c3ccc(I)cc23)c1=O` [2r, 3-(1H-Indol-3-yl)-4-(5-iodo-1H-indol-3-yl)cyclobut-3-ene-1,2-dione] the IC50 was 7250 nM. `Cn1cc(-c2c(-c3c(-c4ccccc4)[nH]c4ccccc34)c(=O)c2=O)c2ccccc21` [2u, 3-(1-Methyl-1H-indol-3-yl)-4-(2-phenyl-1H-indol-3-yl)cyclobut-3-ene-1,2-dione] was tested, and the IC50 was 2100 nM. `Cc1[nH]c2ccccc2c1-c1c(-c2cn(C)c3ccccc23)c(=O)c1=O` [2y, 3-(1-Methyl-1H-indol-3-yl)-4-(2-methyl-1H-indol-3-yl)cyclobut-3-ene-1,2-dione] was tested, and the IC50 was 8400 nM.

The compounds below were run on P. falciparum (NF54-luc strain) erythrocytic stages (assay: Luciferase-based viability screening for antiplasmodial activity). Settings: Plasmodium falciparum, NF54, 48 h, read-out: IC50 [µM], concentration for 50% inhibition of P. falciparum (NF54-luc strain) erythrocytic stages.
Format: cell-based, Plasmodium falciparum
Method: All synthesized new bisindolylcyclobutenediones 2a–2ar and the related bisindolylmaleimide 8 [37] were screened for inhibition of erythrocytic stages of Plasmodium falciparum employing a bioluminescence-based viability assay on transgenic parasites that constitutively express luciferase (PfNF54-luc). Initially, the compounds were evaluated in single-dose test runs (3 µM). If >20% viability inhibition was observed, dose-response curves were generated and IC50 values were calculated (Table 1). […] The bisindolylmaleimide 8 [37] inhibited the parasites in a single-digit micromolar concentration, similar to many of the bisindolylcyclobutenediones in the study. Because the bisindolylcyclobutenediones 2 display a higher degree of structural novelty, only this compound class was further pursued for its antiplasmodial activity. […] These structural features were considered unfavorable for orientations as illustrated in Figure 2 with 2a and Pfmap-2, PfPK5, PfCDPK2, Pflammer, and PfPK7, respectively. However, a structure generated for 2a in PfGSK-3 in which the indole units are oriented perpendicular to each other (Figure 2a) was considered compatible with the indicated substitution pattern. Consequently, the potent antiplasmodial derivatives 2k, 2ad, and 2ae were tested in a kinase Glo assay for inhibition of recombinant PfGSK-3. […] For the compounds with particularly potent antiplasmodial activity, cytotoxicity was also determined using the human cell line THP-1 to assess selectivity with respect to parasite cells (Table 2).
Screening for the antiplasmodial activity of test compounds was performed by luciferase-based viability assays as reported previously. In brief, asexual erythrocytic stages of transgenic NF54-luc P. falciparum were cultured as described elsewhere. Parasite cultures with parasitaemia of 0.5–1% were incubated in the presence of 3 µM test compounds for 48 h. After the subsequent addition of Bright-Glo substrate solution (Promega, Madison, WI), the resulting luminescence was measured. Untreated cultures (0.01% DMSO) were used as negative controls. Experiments were performed in triplicate and were repeated as a whole at least twice. Blasticidin (Sigma-Aldrich, St. Louis, MO, USA) was included as a positive control.
Compound `COc1ccc2[nH]cc(-c3c(-c4c[nH]c5ccc(Br)cc45)c(=O)c3=O)c2c1` [2ad, 3-(5-Bromo-1H-indol-3-yl)-4-(5-methoxy-1H-indol-3-yl)cyclobut-3-ene-1,2-dione] has an IC50 of 0.47 µM. In the case of `COc1ccc2[nH]cc(-c3c(-c4c[nH]c5ccc(I)cc45)c(=O)c3=O)c2c1` [2ae, 3-(5-Iodo-1H-indol-3-yl)-4-(5-methoxy-1H-indol-3-yl)cyclobut-3-en-1,2-dione], the IC50 is reported as 0.64 µM. In the case of `O=c1c(-c2c[nH]c3ccccc23)c(-c2c(-c3ccccc3)[nH]c3ccccc23)c1=O` [2h, 3-(1H-Indol-3-yl)-4-(2-phenyl-1H-indol-3-yl)cyclobut-3-ene-1,2-dione], the IC50 is reported as 6.38 µM. For `CN(C)CCCn1cc(-c2c(-c3c[nH]c4ccccc34)c(=O)c2=O)c2ccccc21` [2k, 3-{1-[3-(Dimethylamino)propyl]-1H-indol-3-yl}-4-(1H-indol-3-yl)cyclobut-3-ene-1,2-dione], the IC50 was 0.376 µM. For `Cn1cc(-c2c(-c3c[nH]c4ccccc34)c(=O)c2=O)c2ccccc21` [2q, 3-(1H-Indol-3-yl)-4-(1-methyl-1H-indol-3-yl)cyclobut-3-ene-1,2-dione], the IC50 was 2.97 µM. `O=c1c(-c2c[nH]c3ccccc23)c(-c2c[nH]c3ccc(I)cc23)c1=O` [2r, 3-(1H-Indol-3-yl)-4-(5-iodo-1H-indol-3-yl)cyclobut-3-ene-1,2-dione] was tested, and the IC50 was 0.915 µM. `Cn1cc(-c2c(-c3c(-c4ccccc4)[nH]c4ccccc34)c(=O)c2=O)c2ccccc21` [2u, 3-(1-Methyl-1H-indol-3-yl)-4-(2-phenyl-1H-indol-3-yl)cyclobut-3-ene-1,2-dione] gave an IC50 of 1.72 µM. Work on `Cc1[nH]c2ccccc2c1-c1c(-c2cn(C)c3ccccc23)c(=O)c1=O` [2y, 3-(1-Methyl-1H-indol-3-yl)-4-(2-methyl-1H-indol-3-yl)cyclobut-3-ene-1,2-dione] yielded an IC50 of 2.67 µM.

Same assay, conditions: Plasmodium falciparum, NF54, 48 h, read-out: Inhibition at 3 µM [%]
With `COc1ccc2[nH]cc(-c3c(-c4c[nH]c5ccc(Br)cc45)c(=O)c3=O)c2c1` [2ad, 3-(5-Bromo-1H-indol-3-yl)-4-(5-methoxy-1H-indol-3-yl)cyclobut-3-ene-1,2-dione] the inhibition at 3 µM was 98.8 ± 0.7%. For `CN(C)CCCn1cc(-c2c(-c3c[nH]c4ccccc34)c(=O)c2=O)c2ccccc21` [2k, 3-{1-[3-(Dimethylamino)propyl]-1H-indol-3-yl}-4-(1H-indol-3-yl)cyclobut-3-ene-1,2-dione], the inhibition at 3 µM was 98.1 ± 1.8%.

Same assay, conditions: Plasmodium falciparum, NF54, read-out: IC50, Pf [µM]
With `COc1ccc2[nH]cc(-c3c(-c4c[nH]c5ccc(Br)cc45)c(=O)c3=O)c2c1` [2ad, 3-(5-Bromo-1H-indol-3-yl)-4-(5-methoxy-1H-indol-3-yl)cyclobut-3-ene-1,2-dione] the IC50 was 0.47 µM. Work on `COc1ccc2[nH]cc(-c3c(-c4c[nH]c5ccc(I)cc45)c(=O)c3=O)c2c1` [2ae, 3-(5-Iodo-1H-indol-3-yl)-4-(5-methoxy-1H-indol-3-yl)cyclobut-3-en-1,2-dione] yielded an IC50 of 0.64 µM. Work on `O=c1c(-c2c[nH]c3ccccc23)c(-c2c(-c3ccccc3)[nH]c3ccccc23)c1=O` [2h, 3-(1H-Indol-3-yl)-4-(2-phenyl-1H-indol-3-yl)cyclobut-3-ene-1,2-dione] yielded an IC50 of 6.38 µM. `CN(C)CCCn1cc(-c2c(-c3c[nH]c4ccccc34)c(=O)c2=O)c2ccccc21` [2k, 3-{1-[3-(Dimethylamino)propyl]-1H-indol-3-yl}-4-(1H-indol-3-yl)cyclobut-3-ene-1,2-dione] was tested, and the IC50 was 0.38 µM. `Cn1cc(-c2c(-c3c[nH]c4ccccc34)c(=O)c2=O)c2ccccc21` [2q, 3-(1H-Indol-3-yl)-4-(1-methyl-1H-indol-3-yl)cyclobut-3-ene-1,2-dione] showed an IC50 of 2.97 µM. In the case of `O=c1c(-c2c[nH]c3ccccc23)c(-c2c[nH]c3ccc(I)cc23)c1=O` [2r, 3-(1H-Indol-3-yl)-4-(5-iodo-1H-indol-3-yl)cyclobut-3-ene-1,2-dione], the IC50 is reported as 0.92 µM. `Cn1cc(-c2c(-c3c(-c4ccccc4)[nH]c4ccccc34)c(=O)c2=O)c2ccccc21` [2u, 3-(1-Methyl-1H-indol-3-yl)-4-(2-phenyl-1H-indol-3-yl)cyclobut-3-ene-1,2-dione] was tested, and the IC50 was 1.72 µM. `Cc1[nH]c2ccccc2c1-c1c(-c2cn(C)c3ccccc23)c(=O)c1=O` [2y, 3-(1-Methyl-1H-indol-3-yl)-4-(2-methyl-1H-indol-3-yl)cyclobut-3-ene-1,2-dione] showed an IC50 of 2.67 µM.
